Values of other authors in US20070160647A1, “Materials for medical implants and occlusive devices” (Clarity Corporation, priority 2004, published 2007).

solubility in DMSO and alcohols: highly soluble
solubility in water: insoluble
SMILES: Oc1cc(Cl)ccc1Oc1ccc(Cl)cc1Cl [triclosan]
